The values below come from patent US9242984B2, “Pyrazolyl derivatives as Syk inhibitors” (Merck Sharp & Dohme Corp., priority 2012, dated 2016).

In the test the target is T1, recombinant human Syk (GST-hSyk fusion protein) (Homo sapiens, UniProt P43405).
T1 construct: purchased Carna Biosciences 08-176
In words: Homogeneous Time-Resolved Fluorescence (HTRF) assay for the recombinant human Syk enzyme. Format: biochemical. As to conditions: 10-dose titration, 25 μM ATP. In a few lines:
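GST-hSyk (5 pM) preincubated 10 min with compound (0.1% DMSO) in 15 mM Tris-HCl pH 7.5, 2 mM DTT; reaction started with 250 nM biotinylated peptide, 5 mM Mg, 25 μM ATP, 45 min, room temperature. EDTA quench, Eu-anti-phosphotyrosine/SA-APC HTRF read after 30 min; IC50 from 10-dose titration (10 μM–0.508 nM), four-parameter fit.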
In general terms: TR-FRET usually uses a lanthanide donor and a delayed reading to cut background.

[1] abbreviates: IC50 class, read-out: rhSYK Activity.

Like-named read-outs stand apart in the source and are kept apart here.

Consider `Cc1cc(Nc2nccc(C(F)F)n2)cc(-c2cnn(CCNS(C)(=O)=O)c2)c1` [Example 27.1, N-(2-(4-(3-((4-(Difluoromethyl)pyrimidin-2-yl)amino)-5-methylphenyl)-1H-pyrazol-1-yl)ethyl)methanesulfonamide], for which the IC50 was 8.6 nM (read-out: rhSYK IC50) and no more than 100 nM under setting [1]. For the compound `COC(=O)NCCn1cc(-c2cc(C)cc(Nc3nccc(C(F)F)n3)c2)cn1` [Example 27.2, methyl {2-[4-(3-{[4-(difluoromethyl)pyrimidin-2-yl]amino}-5-methylphenyl)-1H-pyrazol-1-yl]ethyl}carbamate], the IC50 under setting [1] is no more than 100 nM. Still for that read-out and setting: the same measure for `COCCOC(=O)NCCn1cc(-c2cc(C)cc(Nc3nccc(C(F)F)n3)c2)cn1` [Example 27.3, 2-methoxyethyl {2-[4-(3-{[4-(difluoromethyl)pyrimidin-2-yl]amino}-5-methylphenyl)-1H-pyrazol-1-yl]ethyl}carbamate]: no more than 100 nM; for `Cc1cc(Nc2nccc(C(F)F)n2)cc(-c2cnn(CC(C)(C)NS(C)(=O)=O)c2)c1` [Example 27.4, N-{2-[4-(3-{[4-(difluoromethyl)pyrimidin-2-yl]amino}-5-methylphenyl)-1H-pyrazol-1-yl]-1,1-dimethylethyl}methanesulfonamide]: no more than 100 nM; for `Cc1cc(Nc2nccc(C(F)F)n2)cc(-c2cnn(CC(C)(C)NS(=O)(=O)C3CC3)c2)c1` [Example 27.5, N-{2-[4-(3-{[4-(difluoromethyl)pyrimidin-2-yl]amino}-5-methylphenyl)-1H-pyrazol-1-yl]-1,1-dimethylethyl}cyclopropanesulfonamide]: no more than 100 nM. Same read-out and setting: the figure for `Cc1cc(Nc2nccc(C(F)F)n2)cc(-c2cnn(CC(C)(C)NS(=O)(=O)N3CCOCC3)c2)c1` [Example 27.6, N-{2-[4-(3-{[4-(difluoromethyl)pyrimidin-2-yl]amino}-5-methylphenyl)-1H-pyrazol-1-yl]-1,1-dimethylethyl}morpholine-4-sulfonamide] is no more than 100 nM. Regarding `Cc1cc(Nc2nccc(C(F)F)n2)cc(-c2cnn(CC(C)(C)NC(=O)NC(C)(C)C)c2)c1` [Example 27.7, 1-tert-butyl-3-{2-[4-(3-{[4-(difluoromethyl)pyrimidin-2-yl]amino}-5-methylphenyl)-1H-pyrazol-1-yl]-1,1-dimethylethyl}urea], the IC50 under setting [1] was no more than 100 nM.

For `CCNC(=O)NC(C)(C)Cn1cc(-c2cc(C)cc(Nc3nccc(C(F)F)n3)c2)cn1` [Example 27.8, 1-{2-[4-(3-{[4-(difluoromethyl)pyrimidin-2-yl]amino}-5-methylphenyl)-1H-pyrazol-1-yl]-1,1-dimethylethyl}-3-ethylurea], the IC50 under setting [1] was no more than 100 nM. Consider `Cc1cc(Nc2nccc(C(F)F)n2)cc(-c2cnn(CC(C)(C)NC(=O)NCC3CCOCC3)c2)c1` [Example 27.9, 1-{2-[4-(3-{[4-(difluoromethyl)pyrimidin-2-yl]amino}-5-methylphenyl)-1H-pyrazol-1-yl]-1,1-dimethylethyl}-3-(tetrahydro-2H-pyran-4-ylmethyl)urea], for which the IC50 under setting [1] was no more than 100 nM. Still for that read-out and setting: the figure for `Cc1cc(Nc2nccc(C(F)F)n2)cc(-c2cnn(CC(C)(C)NC(=O)OCCF)c2)c1` [Example 27.10, 2-fluoroethyl {2-[4-(3-{[4-(difluoromethyl)pyrimidin-2-yl]amino}-5-methylphenyl)-1H-pyrazol-1-yl]-1,1-dimethylethyl}carbamate] is no more than 100 nM; for `COC(=O)NC(C)(C)Cn1cc(-c2cc(C)cc(Nc3nccc(C(F)F)n3)c2)cn1` [Example 27.11, methyl {2-[4-(3-{[4-(difluoromethyl)pyrimidin-2-yl]amino}-5-methylphenyl)-1H-pyrazol-1-yl]-1,1-dimethylethyl}carbamate] it is no more than 100 nM; for `COCCOC(=O)NC(C)(C)Cn1cc(-c2cc(C)cc(Nc3nccc(C(F)F)n3)c2)cn1` [Example 27.12, 2-methoxyethyl {2-[4-(3-{[4-(difluoromethyl)pyrimidin-2-yl]amino}-5-methylphenyl)-1H-pyrazol-1-yl]-1,1-dimethylethyl}carbamate] it is no more than 100 nM. On the same count and under the same terms, the same measure for `Cc1cc(Nc2nccc(C(F)F)n2)cc(-c2cnn(CCNS(=O)(=O)C3CC3)c2)c1` [Example 27.13, N-{2-[4-(3-{[4-(difluoromethyl)pyrimidin-2-yl]amino}-5-methylphenyl)-1H-pyrazol-1-yl]ethyl}cyclopropanesulfonamide]: no more than 100 nM; for `Cc1cc(Nc2nccc(C(F)F)n2)cc(-c2cnn(CCNS(=O)(=O)N3CCOCC3)c2)c1` [Example 27.14, N-{2-[4-(3-{[4-(difluoromethyl)pyrimidin-2-yl]amino}-5-methylphenyl)-1H-pyrazol-1-yl]ethyl}morpholine-4-sulfonamide]: no more than 100 nM; for `Cc1cc(Nc2nccc(C(F)F)n2)cc(-c2cnn(CCNC(=O)NC(C)(C)C)c2)c1` [Example 27.15, 1-tert-butyl-3-{2-[4-(3-{[4-(difluoromethyl)pyrimidin-2-yl]amino}-5-methylphenyl)-1H-pyrazol-1-yl]ethyl}urea]: no more than 100 nM. Same read-out and setting: the figure for `CCNC(=O)NCCn1cc(-c2cc(C)cc(Nc3nccc(C(F)F)n3)c2)cn1` [Example 27.16, 1-{2-[4-(3-{[4-(difluoromethyl)pyrimidin-2-yl]amino}-5-methylphenyl)-1H-pyrazol-1-yl]ethyl}-3-ethylurea] is no more than 100 nM. For `Cc1cc(Nc2nccc(C(F)F)n2)cc(-c2cnn(CCNC(=O)NCC3CCOCC3)c2)c1` [Example 27.17, 1-{2-[4-(3-{[4-(difluoromethyl)pyrimidin-2-yl]amino}-5-methylphenyl)-1H-pyrazol-1-yl]ethyl}-3-(tetrahydro-2H-pyran-4-ylmethyl)urea], under setting [1], the IC50 is no more than 100 nM. Take `Cc1cc(Nc2nccc(C(F)F)n2)cc(-c2cnn(CCNC(=O)OCCF)c2)c1` [Example 27.18, 2-fluoroethyl {2-[4-(3-{[4-(difluoromethyl)pyrimidin-2-yl]amino}-5-methylphenyl)-1H-pyrazol-1-yl]ethyl}carbamate]: the IC50 under setting [1] is no more than 100 nM. Consider `Cc1cc(Nc2nccc(C(F)F)n2)cc(-c2cnn(CC3(O)CCC3)c2)c1` [Example 29.1, 1-((4-(3-((4-(Difluoromethyl)pyrimidin-2-yl)amino)-5-methylphenyl)-1H-pyrazol-1-yl)methyl)cyclobutanol], for which the IC50 (read-out: rhSYK IC50) stood at 2 nM. `Cc1cc(Nc2cc(C(F)F)ccn2)nc(-c2cnn(CC3(O)CCC3)c2)c1` [Example 29.2, 1-{[4-(6-{[4-(difluoromethyl)pyridin-2-yl]amino}-4-methylpyridin-2-yl)-1H-pyrazol-1-yl]methyl}cyclobutanol]: the IC50 under setting [1] was no more than 100 nM. Same read-out and setting: the figure for `Cc1ccnc(Nc2cc(C)cc(-c3cnn(CC4(O)CCC4)c3)n2)c1` [Example 29.3, 1-[(4-{4-methyl-6-[(4-methylpyridin-2-yl)amino]pyridin-2-yl}-1H-pyrazol-1-yl)methyl}cyclobutanol] is no more than 100 nM; for `OC1(Cn2cc(-c3cccc(Nc4nccc(C(F)F)n4)c3)cn2)CCC1` [Example 29.4, 1-{[4-(3-{[4-(difluoromethyl)pyrimidin-2-yl]amino}phenyl)-1H-pyrazol-1-yl]methyl}cyclobutanol] it is no more than 100 nM. With `Cc1cc(Nc2nccc(C)n2)cc(-c2cnn(CC3(O)CCC3)c2)c1` [Example 29.5, 1-[(4-{3-methyl-5-[(4-methylpyrimidin-2-yl)amino]phenyl}-1H-pyrazol-1-yl)methyl}cyclobutanol], under setting [1], the IC50 was no more than 100 nM. On the same count and under the same terms, the figure for `Cc1cc(Nc2ncc(F)c(C(F)F)n2)cc(-c2cnn(CC3(O)CCC3)c2)c1` [Example 29.6, 1-{[4-(3-{[4-(difluoromethyl)-5-fluoropyrimidin-2-yl]amino}-5-methylphenyl)-1H-pyrazol-1-yl]methyl}cyclobutanol] is no more than 100 nM. The same measure, in the same setting: the figure for `Cc1cc(Nc2cc(C3CC3)ccn2)nc(-c2cnn(CC3(O)CCC3)c2)c1` [Example 29.7, 1-[(4-{6-[(4-cyclopropylpyridin-2-yl)amino]-4-methylpyridin-2-yl}-1H-pyrazol-1-yl)methyl]cyclobutanol] is no more than 100 nM; for “N-[2-methyl-6-(1-methyl-1H-pyrazol-4-yl)pyridin-4-yl]-4-(trifluoromethyl)-pyrimidin-2-amine [Example 1.43]” it is 100 to 1000 nM.
